This passage reports Critical pressure and Critical temperature results from the NIST ThermoML archive (doi:10.1016/j.fluid.2017.05.010).

Numbers after ± are expanded uncertainties.

The conditions of the data set: Liquid; Resistive pulse heating.
As to `CCc1ccncc1` [γ-ethylpyridine], the Critical pressure is 4190 ± 130 kPa and the Critical temperature was 653 ± 7 K.
Turning to `CCc1ccccn1` [2-ethylpyridine], the Critical pressure came to 3810 ± 110 kPa and the Critical temperature is listed as 628 ± 6 K.
On to `CCc1ccc(C)nc1` [3-ethyl-6-methylpyridine], for which the Critical pressure stood at 3250 ± 100 kPa and the Critical temperature is 656 ± 7 K.
In the case of `CCc1cccnc1` [3-ethylpyridine], the Critical pressure stood at 4190 ± 130 kPa and the Critical temperature is 651 ± 7 K.
